# Source: patent publication US12415802B1, “Dipyridine benzothiophene derivative compound” (KING FAISAL UNIVERSITY, priority 2025, dated 2025)
# Experiment: DPPH radical scavenging antioxidant test
# Type: biochemical
# Conditions: 517 nm; for Inhibition (radical scavenging inhibition): 0.2 mL DPPH (0.75 mM), compound (3p M) in ethanol, 30 minutes in the dark; for antioxidant activity (in words): DPPH in vitro test, vitamin C as positive control
# Source text: A dipyridine benzo[b]thiophene derivative compound comprises 4-(1-benzothiophen-2-yl)-6-ethoxy-2,3′-bipyridine-5-carbonitrile. […] As described herein, the antioxidant activity of 4-(1-benzothiophen-2-yl)-6-ethoxy-2,3′-bipyridine-5-carbonitrile was investigated by 2,2-diphenyl-1-picrylhydrazyl (DPPH) in vitro tests that employ vitamin C as the positive control.
# The antioxidant properties of the 4-(1-benzothiophen-2-yl)-6-ethoxy-2,3′-bipyridine-5-carbonitrile compound were studied by adding 0.2 mL DPPH (0.75 mM)) to 4-(1-benzothiophen-2-yl)-6-ethoxy-2,3′-bipyridine-5-carbonitrile (3p M) (4) in ethanol. After 30 minutes of incubation in the dark, the absorbance was read against a blank at 517 nm. Ascorbic acid (Vitamin C) was used as a standard antioxidant (positive control). A blank sample was prepared by 0.2 mL of DPPH in 3 mL ethanol. A negative control sample was run using ethanol instead of the sample. The radical scavenging inhibition was calculated using the following equation: […]
# The antioxidant activity for the synthesized compound is listed in Table 1, using Vitamin C as a reference.
SMILES,Inhibition (radical scavenging inhibition),antioxidant activity (in words),antioxidant activity (in words) (listed as III)
"CCOc1nc(-c2cccnc2)cc(-c2cc3ccccc3s2)c1C#N [Product 4, 4-(1-benzothiophen-2-yl)-6-ethoxy-2,3′-bipyridine-5-carbonitrile]",48%,high antioxidant activities,high potential as an antioxidant compared to vitamin C
"O=C1O[C@H]([C@@H](O)CO)C(O)=C1O [Vit C, Ascorbic acid, reference compound]",74%,,
